Test results from patent US20030229105A1, “Treatment of autoimmune disorders” (Cyclacel Limited, priority 2002, published 2003).
“Also recorded” adds a separate entry of the source.

Tests used:
[1] = system: HIV-1 LTR (Tat transactivation); assay: HIV-1 LTR-CAT reporter, Tat-activated transcription in CEM cells; type: cell-based; settings: LTR-CAT plus pcTat (CMV-driven Tat)
From the text: Activated transcription by Tat was also examined in CEM cells using the LTR-CAT reporter and pcTat (CMV-driven Tat). […] .
FIG. 3 discloses inhibition of HIV-1 basal and activated transcription by cdk inhibitors. […] The graphs at the bottom of the figure represent the effect of various concentrations of general cell cycle inhibitors (hydroxyurea and nocodazole) on CEM cells. (B) Inhibition of activated transcription in CEM cells was examined using transfected HIV-1 LTR-CAT, together with pcTat plasmid. (C) Experiment similar experiment to that in panel B, except that pcTat plasmid was replaced with E. coli-expressed and purified Tat protein
Lymphocyte CEM (12D7) cells were grown to mid-log phase and were processed for protein electroporation according to a previously published procedure (24). Only one modification was introduced, in which the cells were electroporated at 230 V and plated in 10 ml of complete RPMI 1640 medium for 18 h prior to harvest and chloramphenicol acetyl transferase (CAT) assay. […] Cells were freeze-thawed three times with intermittent vortexing and then incubated for 3 min at 68° C., followed by centrifugation. Supernatants were transferred to 1.5-ml Eppendorf tubes and centrifuged, and the supernatants were used for the determination of protein concentration. CAT assays were performed with 2 μg of protein according to the method of Gorman et al. (15).

HIV-1 = assay: p24 antigen ELISA of supernatants from induced HIV-1 latently infected cells (ACH2, 8E5, U1); type: cell-based; settings: for inhibition of HIV-1 replication (p24 in medium): ACH2, 8E5, U1 cells induced with TNF-α (10 ng/ml, 2 h), 10 μM drug, 5 days; for p24 antigen release, time course: ACH2 cells, days 2, 4, 6
Description: We chose HIV-1 stably integrated cells, lymphocytic ACH2 and 8E5 cell lines, as well as monocytic U1 cells (and their uninfected parental counterparts CEM and U937, respectively) for our initial studies, since viral transcription could be activated and scored through signals, such as Tat, TNF-α or phorbol myristate acetate (PMA) and PHA. We first activated viruses in these cells with TNF-α (10 ng/ml) at 37° C. for 2 h, followed by washing, and then we incubated cells with 10 μM concentrations of each drug. […] We next examined the effect of all three drugs on primary HIV-1 field isolates of SI and NSI strains. Activated PBMC were infected with two independent HIV-1 viral strains of SI (UG/92/029, subtype A envelope) and NSI (THA/92/001, subtype E envelope).
Five days later, the supernatants were collected, and the amount of newly synthesized HIV-1 was measured by p24 antigen assay. (B) Purified Tat (300 μg) was electroporated into ACH2, 8E5, and U1 cells and subsequently treated with various drugs for 5 days. […] Seven days later samples were collected and used for p19 gag ELISA. (E) PHA-activated PBMC (5×10^6) were infected with HIV-1 either SI (UG/92/029 Uganda strain, subtype A envelope) or NSI (THA/92/001, Thailand strain, subtype E envelope) strains. Unadsorbed viruses were washed after 6 h, and cells were cultured in fresh media with various cdk inhibitors (10 μM). Samples were collected every sixth day and used for p24 gag ELISA assay.
At days 2, 4, and 6, the supernatants were collected, and the released HIV-1 particles were measured by using a p24 antigen ELISA assay. (B) Twenty micrograms of total RNA was separated on an RNA-formaldehyde-agarose gel, transferred, and probed with full-length labeled HIV-1 genome RNA. The hybridized genomic RNA, singly spliced (structural), and doubly spliced (regulatory) RNAs were exposed and counted by using Molecular Dynamic PhosphorImager software.
Supernatants from the infected PBMC were collected and used directly for the p24 antigen assay. The p24 gag antigen level was analyzed by using the HIVAG-1 Monoclonal Antibody Kit (Abbott Laboratories, Diagnostics Division). The HTLV-1 p19 core antigen ELISA kit was from Retro-Tek (Cellular Products).

[2] = system: uninfected T and monocytic cells; assay: Initial test of cdk inhibitors on uninfected cells (data not shown)
[3] = system: ACH2 cells (latently HIV-1 infected); assay: Cell cycle analysis (PI staining, FACS) of HIV-1-infected ACH2 cells; type: cell-based; settings: 10 μM; for apoptosis in HIV-1-infected cells: ACH2 plus TNF-α, 48 h (FIG. 2B)
From the text: We next examined the cellular effects of these drugs on the cell cycle progression of HIV-1-infected and uninfected cells. […]. […] Therefore, the selective killing mechanism by this particular drug might partially be responsible for the decrease in HIV-1 titers observed in the infected cells. We also reasoned that Purvalanol A may be toxic to uninfected induced cells by increasing the G2/M population and the increase of apoptosis, as is evident in FIG. 2A. […] U937 is the uninfected monocytic parental cell line, and U1 is the U937 cell line infected with two copies of integrated HIV-1, only one of which is wild type for viral progeny formation. […]. This is in contrast to many apoptosis-inducing agents, such as TNF-α DNA-damaging agents (gamma irradiation, mitomycin C [6]), or sodium butyrate, in which cases the apoptosis of HIV-1-infected cell accompanies massive production and the release of infectious HIV-1 virions.
Forty-eight hours later, cells were collected, fixed with 70% ethanol, PI stained, and analyzed by FACS. (B and C) Experiments similar to the experiment in panel A were performed in ACH2 (B) or U1 (C) cells (both latently HIV-1 infected) plus TNF-α, followed by ethanol fixation, PI staining, and analysis by FACS. Apoptosis (Apop) represents a mixture of cells from either G1, S, or G2/M with characteristics of cell death.
For fluorescence-activated cell sorting (FACS) analysis, cells were stained with a cocktail of propidium iodide (PI) buffer (PBS with Ca^2+ and Mg^2+, RNase A [10 μg/ml], NP-40 [0.1%], and PI [50 μg/ml]) followed by cell-sorting analysis. FACS data acquired were analyzed by ModFit LT software (Verity Software House, Inc.).

Compound	inhibition of Tat transactivation (CAT activity) [1]	inhibition of HIV-1 replication (p24 in medium) (HIV-1)	toxicity in uninfected cells [2]	apoptosis in HIV-1-infected cells [3]	inhibition of HIV-1 replication (p24), Tat-treated cells (HIV-1; ACH2, 8E5, U1 electroporated with purified Tat, drugs for 5 days)	p24 antigen release, time course (HIV-1; 1 μM)	p24 antigen release, time course (HIV-1; 10 μM)	apoptosis ([3]; ACH2 cells, TNF-α, 48 h) [%]
CC(C)[C@H](CO)Nc1nc(Nc2cccc(Cl)c2)c2ncn(C(C)C)c2n1 [Purvalanol A]	impaired	most effective	lack of toxicity	increased apoptosis				
Roscovitine	impaired; also recorded: inhibited activated transcription better than the other two analogs	most effective	lack of toxicity	increased apoptosis	best inhibited	no obvious decrease of p24 was apparent	only low levels of viral p24 antigens were detected	30.21
